Measurements taken from patent publication US20160361244A1, “USE OF THE INHIBITOR OF STEROID SULFATASES STX64 FOR TREATING AGING” (U[…] DE OLAVIDE, priority 2013, published 2016).

Test system: wild type C. elegans
Assay: Longevity curves of C. elegans in the presence of the steroid sulfatase inhibitor
Type: in vivo
Settings: for longevity (longevity curve) versus control population exposed to the inhibitor solvent (DMSO): 25° C., p=0.0139, n>100, FIG. 3
Description: In order to generate the longevity curves, the strains under study and their pertinent controls were first subjected to an egg preparation in order to prevent contaminations and synchronise them at the embryonic stage, and, subsequently, they were incubated at 16° C. In order to prevent interferences caused by physiological stresses resulting from this process, they were allowed to grow to the following generation. 5 or 6 L4 per plate were then transferred to 4 plates, and were once again incubated at 16° C. to L4, the stage selected to start the longevity curves.
On day zero, 120 L4 of each strain were transferred to new plates, 20 worms per plate, and incubated at the temperature at which the assay was subsequently performed, i.e. 25° C.
During the first week of the curves, the nematodes were transferred to new plates every 2 days, in order to prevent confusions with potential descendants. Subsequently, they were checked every 2 or 3 days, and those specimens that were lost or dead for non-physiological reasons were withdrawn from the study. The individuals were transferred to new plates every 5 days in order to maintain optimal growth conditions in the plates. The specimens were considered to be dead when they ceased to respond upon being softly touched with the platinum wire.
The longevity was studied in the presence of the steroid sulfatase inhibitor STX64 (SIGMA, S1950-5MG) diluted in DMSO at 5 μg/μl. […] The preparation and synchronisation of the nematodes until day=0 was the same as in the preceding case, the only difference being that the nematodes were transferred to fresh plates every two or three days until the curve was completed.
We used the GraphPad Prism 5 programme (Version 5.0a, for Mac OS X. 1992-2008 GraphPad Software, Inc.) in the survival curve mode to represent the longevity curves, and the Kaplan-Meier method was used to perform the statistical analysis thereof. […]

For `NS(=O)(=O)Oc1ccc2c3c(c(=O)oc2c1)CCCCC3` [STX64, Irosustat], the “effect of treatment on ageing” value (C. elegans, FIG. 3) was “delayed ageing”, the “longevity (longevity curve) versus control population exposed to the inhibitor solvent (DMSO)” value (wild type population supplemented with 0.5 μg/ml) was “lives significantly longer” and the “longevity (longevity curve) versus control population exposed to the inhibitor solvent (DMSO)” value (wild type population supplemented with 1 μg/ml) was “lives significantly longer”.
